Like-named read-outs stand apart in the source and are kept apart here.
Target: T1, F508delCFTR (Homo sapiens, UniProt P13569, DEL508-508)
T1 construct: expressed in transfected cells; host or cells: CFBE41o- (human lung derived epithelial cell line), doxycycline-inducible expression
Experiment: Cell Surface Expression-Horse Radish Peroxidase (CSE-HRP) assay
Format: cell-based
Conditions: CFBE41o-F508delCFTR-HRP cells; for Maximum % activity (with co-corrector): with co-corrector (2 μM); for Maximum % activity (with co-corrector) / Maximum % activity (without co-corrector): normalized to on-plate positive control, highest concentration 20 μM
Method in brief: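 Surface F508delCFTR-HRP was read by luminol luminescence after 18–24 h compound exposure at 33 °C, without or with 2 μM co-corrector. Doses were eight 3-fold steps from 20 μM, in doxycycline-induced (0.5 μg/mL, 72 h) CFBE41o- cells. % activity was scaled to the on-plate 2 μM positive control minus DMSO; EC50 came from a variable-slope sigmoid fit.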

[1] = test compound without co-corrector, 18-24 hours at 33° C., read-out: EC50 (without co-corrector)
[2] = with co-corrector (2 μM of 3-[(2R,4R)-4-({[1-(2,2-difluoro-1,3-benzodioxol-5-yl)cyclopropyl]carbonyl}amino)-7-methoxy-3,4-dihydro-2H-chromen-2-yl]benzoic acid), read-out: EC50 (with co-corrector)

T1 sequence (P13569 with tags, fused parts or gaps DEL508-508): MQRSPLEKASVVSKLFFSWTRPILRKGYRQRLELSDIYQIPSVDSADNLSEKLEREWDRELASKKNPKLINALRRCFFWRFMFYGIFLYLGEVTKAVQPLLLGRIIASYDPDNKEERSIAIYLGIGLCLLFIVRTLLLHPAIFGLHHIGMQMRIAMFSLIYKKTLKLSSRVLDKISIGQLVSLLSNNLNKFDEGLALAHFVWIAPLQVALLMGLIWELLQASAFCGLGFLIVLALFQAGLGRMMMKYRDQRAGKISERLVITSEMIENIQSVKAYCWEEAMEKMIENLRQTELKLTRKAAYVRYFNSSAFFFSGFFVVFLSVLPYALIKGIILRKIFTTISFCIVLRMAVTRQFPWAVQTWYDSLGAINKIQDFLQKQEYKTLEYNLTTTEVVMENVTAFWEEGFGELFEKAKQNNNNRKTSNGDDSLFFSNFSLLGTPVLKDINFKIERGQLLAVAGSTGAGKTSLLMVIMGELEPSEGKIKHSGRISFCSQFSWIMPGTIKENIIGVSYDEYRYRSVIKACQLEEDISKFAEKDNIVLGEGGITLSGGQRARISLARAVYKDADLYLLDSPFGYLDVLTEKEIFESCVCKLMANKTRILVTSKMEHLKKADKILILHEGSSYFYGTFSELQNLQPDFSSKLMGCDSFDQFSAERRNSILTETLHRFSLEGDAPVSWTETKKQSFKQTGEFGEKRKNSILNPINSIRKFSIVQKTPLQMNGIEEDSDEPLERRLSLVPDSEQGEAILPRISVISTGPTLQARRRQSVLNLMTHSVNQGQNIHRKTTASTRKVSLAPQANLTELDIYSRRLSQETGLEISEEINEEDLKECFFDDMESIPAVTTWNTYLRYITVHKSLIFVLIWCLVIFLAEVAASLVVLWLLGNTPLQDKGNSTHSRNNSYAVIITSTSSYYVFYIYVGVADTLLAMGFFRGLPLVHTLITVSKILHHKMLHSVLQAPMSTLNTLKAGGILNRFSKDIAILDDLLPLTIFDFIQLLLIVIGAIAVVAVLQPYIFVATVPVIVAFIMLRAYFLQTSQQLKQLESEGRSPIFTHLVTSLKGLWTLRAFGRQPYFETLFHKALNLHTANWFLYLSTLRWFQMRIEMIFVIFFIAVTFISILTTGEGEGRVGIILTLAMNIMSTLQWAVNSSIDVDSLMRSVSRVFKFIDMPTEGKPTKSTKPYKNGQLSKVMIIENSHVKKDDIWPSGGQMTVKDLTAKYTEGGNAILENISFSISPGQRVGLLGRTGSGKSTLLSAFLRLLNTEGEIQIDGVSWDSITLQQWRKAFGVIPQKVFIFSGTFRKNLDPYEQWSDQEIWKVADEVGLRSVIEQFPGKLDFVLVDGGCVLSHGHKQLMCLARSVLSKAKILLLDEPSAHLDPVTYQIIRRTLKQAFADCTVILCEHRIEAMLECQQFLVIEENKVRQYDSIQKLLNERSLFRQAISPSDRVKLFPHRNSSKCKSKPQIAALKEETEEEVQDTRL

EC50 [1]	EC50 [2]	Maximum % activity (with co-corrector)	Maximum % activity (without co-corrector)	Compound
1000 to 10000 nM	< 1000 nM	+++ (≥350)	+++ (≥200)	COc1ncc(C(F)(F)F)cc1CO[C@H]1[C@H](C(C)(C)C)[C@@H](C(=O)O)N(C(=O)[C@@H]2CCCCO2)[C@H]1c1cccc(Cl)c1C [Example 232, (2S,3R,4S,5S)-3-tert-butyl-5-(3-chloro-2-methylphenyl)-4-{[2-methoxy-5-(trifluoromethyl)pyridin-3-yl]methoxy}-1-[(2S)-oxane-2-carbonyl]pyrrolidine-2-carboxylic acid]
1000 to 10000 nM	< 1000 nM	+++ (≥350)	+++ (≥200)	COc1ncc(C(C)(C)C)cc1CO[C@H]1[C@H](C(C)(C)C)[C@@H](C(=O)O)N(C(=O)[C@@H]2CCCCO2)[C@H]1c1ccccc1C [Example 233, (2S,3R,4S,5S)-3-tert-butyl-4-[(5-tert-butyl-2-methoxypyridin-3-yl)methoxy]-5-(2-methylphenyl)-1-[(2S)-oxane-2-carbonyl]pyrrolidine-2-carboxylic acid]
< 1000 nM	< 1000 nM	+++ (≥350)	+++ (≥200)	[2H]C([2H])([2H])Oc1ccc(C(F)(F)F)cc1C([2H])([2H])O[C@H]1[C@H](C(C)(C)C)[C@@H](C(=O)O)N(C(=O)[C@@H]2CCCCO2)[C@H]1c1ccccc1C [Example 234, (2S,3R,4S,5S)-3-tert-butyl-4-{[{2-[(^2H3)methyloxy]-5-(trifluoromethyl)phenyl}(^2H2)methyl]oxy}-5-(2-methylphenyl)-1-[(2S)-oxane-2-carbonyl]pyrrolidine-2-carboxylic acid]
< 1000 nM	< 1000 nM	+++ (≥350)	+++ (≥200)	[2H]C([2H])(O[C@H]1[C@H](C(C)(C)C)[C@@H](C(=O)O)N(C(=O)[C@@H]2CCCCO2)[C@H]1c1ccccc1C)c1cc(C(C)(C)C)ccc1OC [Example 235, (2S,3R,4S,5S)-3-tert-butyl-4-{[(5-tert-butyl-2-methoxyphenyl)(^2H2)methyl]oxy}-5-(2-methylphenyl)-1-[(2S)-oxane-2-carbonyl]pyrrolidine-2-carboxylic acid]

Second part, the molecule before the results:

Compound	EC50 [1]	EC50 [2]	Maximum % activity (with co-corrector)	Maximum % activity (without co-corrector)
COc1ncc(C2CCC2)cc1CO[C@H]1[C@H](C(C)(C)C)[C@@H](C(=O)O)N(C(=O)[C@@H]2CCCCO2)[C@H]1c1cccc(Cl)c1C [Example 231, (2S,3R,4S,5S)-3-tert-butyl-5-(3-chloro-2-methylphenyl)-4-[(5-cyclobutyl-2-methoxypyridin-3-yl)methoxy]-1-[(2S)-oxane-2-carbonyl]pyrrolidine-2-carboxylic acid]	1000 to 10000 nM	< 1000 nM	+++ (≥350)	+++ (≥200)
Cc1cc(C)c2cc(CO[C@H]3[C@H](C(C)(C)C)[C@@H](C(=O)O)N(C(=O)[C@@H]4CCCCO4)[C@H]3c3ccccc3C)c(Cl)nc2c1 [Example 236, (2S,3R,4S,5S)-3-tert-butyl-4-[(2-chloro-5,7-dimethylquinolin-3-yl)methoxy]-5-(2-methylphenyl)-1-[(2S)-oxane-2-carbonyl]pyrrolidine-2-carboxylic acid]	1000 to 10000 nM	1000 to 10000 nM	+++ (≥350)	++ (≥100 and <200)
COc1nc2c(C)ccc(C)c2cc1CO[C@H]1[C@H](C(C)(C)C)[C@@H](C(=O)O)N(C(=O)[C@@H]2CCCCO2)[C@H]1c1ccccc1C [Example 237, (2S,3R,4S,5S)-3-tert-butyl-4-[(2-methoxy-5,8-dimethylquinolin-3-yl)methoxy]-5-(2-methylphenyl)-1-[(2S)-oxane-2-carbonyl]pyrrolidine-2-carboxylic acid]	1000 to 10000 nM	< 1000 nM	+++ (≥350)	+++ (≥200)

Reference: patent US10399940B2, “Substituted pyrrolidines and methods of use” (AbbVie S.à.r.l., priority 2016, dated 2019)
